Target: T1, LeuT (leucine transporter) (Aquifex aeolicus, UniProt O67854, R30A/A313H/A317H/K398C)
T1 construct: gene snf; full-length LeuT, C-terminal octahistidine tag with thrombin site, pET16b derivative, expressed in E. coli C41, purified in DDM; tmFRET variants labelled with fluorescein-5-maleimide
Assay: scintillation proximity assay, Na+-dependent [3H]leucine binding
Details: 5 μM [3H]leucine; pH 7.5; DDM; fluorescein-labelled at K398C; labelled compound

CC(C)C[C@H](N)C(=O)O [leucine]
scintillation proximity assay, Na+-dependent [3H]leucine binding: Na^+ dependence of [^3H]leucine binding to R30A^tmFRET

— publication PMC5052704, “Transition metal ion FRET uncovers K^+ regulation of a neurotransmitter/sodium symporter” (Nature Communications, 2016)
